Assay results: patent US7335668B2, “Pharmaceutical composition for therapy of interstitial cystitis” (priority 2001, dated 2008)

Experiments:
[1] = system: capsaicin-sensitive sensory nerve; test: Plasma protein extravasation induced by capsaicin in the mouse bladder (Evans blue); format: in vivo; conditions: for intravesical concentration that inhibited extravascular leakage of plasma proteins (depressant action on capsaicin-sensitive sensory nerve): mouse bladder, infused intravesically; for reduction of capsaicin-induced increase in Evans blue dye content in the bladder: female Balb/c mice, 100 μL, about one hour before capsaicin 300 μg/kg i.v.
Method: In the experiment, four or five female Balb/c mice (Japan SLC, Inc.) per group were used. A catheter was inserted into the bladder of a mouse anesthetized with urethane (intraperitoneally administered with 0.15 ml of a 20% solution per mouse) via the urethra, and after emptying the bladder, a physiological saline or drug solution was injected. This catheter was prepared by blunting the tip of a 24-guage hypodermic needle and making a side hole at 2 mm from the newly prepared tip. About one hour after the instillation into the bladder, extravascular leakage of plasma proteins due to inflammatory reaction caused by stimulation of the capsaicin-sensitive sensory nerve according to the method of Maggi, et al. (Nauny-Schmiedeberg's Arch. Pharmacol., 336: pp.546-555(1987)). That is Evans blue (30 mg/kg) a dye bound by plasma proteins and capsaicin (300 μg/kg) were administered to the mouse from the tail vein, and precisely five minutes after the administration, the mouse was killed by cervical dislocation, then the bladder was removed. After removing urine and blood remaining in the tissue, the dye in the organs was quantitatively determined. Evans blue dye was extracted from the bladder by placing the tissue in 150 μL of formamide overnight, and was quantitatively determined by measuring light absorbance at a wavelength of 620 nm of 100 μL supernatant in a 96-well microplate. In addition, the content of Evans blue dye in one milligram of wet tissue was calculated. Moreover, the mouse intravesically instilled with physiological saline and intravenously administered with a capsaicin-free Evans blue solution served as a normal control. […] Capsaicin and formamide were purchased from Wako Pure Chemical Industries, Ltd., and Evans blue was purchased from Aldrich. […] Results were shown as [(mean values)±(standard errors of the mean)]. The Student's t-test was used to determine the significance of difference between the group of mice receiving […] saline and stimulated with capsaicin e and the group of normal control mice.

[2] = system: rhythmic bladder contraction; conditions: as disclosed in International Patent Publication No. 96/20194; cited from earlier work

## O=C(OC1CN2CCC1CC2)N1CCc2ccccc2C1c1ccccc1 (stereo not drawn) [Compound A, quinuclidin-3′-yl 1-phenyl-1,2,3,4-tetrahydroisoquinoline-2-carboxylate]
[1]
  intravesical concentration that inhibited extravascular leakage of plasma proteins (depressant action on capsaicin-sensitive sensory nerve): ≥ 1 µM
[2]
  effect on rat rhythmic bladder contraction: inhibitory effects on rat rhythmic bladder contraction

## O=C(O[C@H]1CN2CCC1CC2)N1CCc2ccccc2[C@@H]1c1ccccc1 [Compound 1, (+)-(1S,3′R)-quinuclidin-3′-yl 1-phenyl-1,2,3,4-tetrahydroisoquinoline-2-carboxylate]
[1]; injected intravesically at 1 μM
  reduction of capsaicin-induced increase in Evans blue dye content in the bladder: 52%
[1]; injected intravesically at 10 μM
  reduction of capsaicin-induced increase in Evans blue dye content in the bladder: 76%
[1]; injected intravesically at 100 μM
  reduction of capsaicin-induced increase in Evans blue dye content in the bladder: 80%
[1]
  intravesical concentration that inhibited extravascular leakage of plasma proteins (depressant action on capsaicin-sensitive sensory nerve): ≥ 1 µM
